Literature values as cited in patent publication US6689455B2, “Method of producing hexagonal ferrite and magnetic recording medium using said hexagonal ferrite” (Fuji Photo Film Co., Ltd., priority 2001, dated 2004).

Settings: for pKa: value in parentheses after the compound name, acetic acid: 2 mol/l aqueous solution; for Organic matter pKa value: organic matter used to treat the ferrite powder, Tables 1 and 2; for pKa1: first dissociation of dicarboxylic acids

For O=S(=O)(O)c1ccccc1 [benzenesulfonic acid], which pKa is on record?
Its pKa is 2.55.

Which pKa does the source give for O=C(NO)c1ccccc1 [benzohydroxamic acid] here?
Its pKa is 2.3.

For O=P([O-])([O-])CN(CCN(CCN(CP(=O)([O-])[O-])CP(=O)([O-])O)CP(=O)([O-])O)CP(=O)([O-])O.[Na+].[Na+].[Na+].[Na+].[Na+].[Na+].[Na+] [heptasodium diethylenetriamine-pentamethylene phosphonate], which “Organic matter pKa value” is on record?
The value was 1.8.

With O=P(O)(O)Oc1ccccc1 [phenoxyphosphonic acid] as the molecule, how does the “Organic matter pKa value” read?
The value was 2.0.

What about the pKa of the same molecule?
Its pKa is 1.95.

With O=P(O)(O)c1ccccc1 [phenylphosphonic acid] as the molecule, how does the “Organic matter pKa value” read?
The value was 1.8.

And the pKa?
The pKa was 1.8.

For O=C(O)c1ccccc1C(=O)O [phthalic acid], which pKa1 is on record?
Its pKa1 is 2.75.

For NS(=O)(=O)O [sulfaminic acid], which pKa is on record?
Its pKa is 1.65.

For O=C(O)c1ccc(C(=O)O)cc1 [terephthalic acid], which pKa1 is on record?
The pKa1 was 3.54.
